Test results as given in BindingDB's records for doi:10.1016/j.bmcl.2012.02.027 (Memorial Sloan-Kettering Cancer Center, 2012).

Target: Presenilin-1 (Homo sapiens, UniProt P49768)
Test: Inhibition of gamma-secretase in cell-free human HeLa membrane assessed as amyloid beta-42 production using APP as substrate

**Q.** Which IC50 does the source give for `CC(C)C[C@H](NC(=O)[C@H](Cc1ccccc1)C[C@@H](O)[C@H](Cc1ccccc1)NC(=O)OC(C)(C)C)C(=O)N[C@@H](Cc1ccc(C(=O)c2ccccc2)cc1)C(=O)NCCCCCNC(=O)CCCC[C@@H]1SC[C@@H]2NC(=O)N[C@@H]21` here?
**A.** Its IC50 is 0.3 nM.
